The values below come from US20260306460A1, “COMPOSITION FOR REMOVING AND INHIBITING SENESCENT CELLS, AND USES THEREOF” (LIFECEUTIX CO., LTD., priority 2023, published 2026).

Series [1] concerns mice with peritoneal fibrosis induced by chlorhexidine gluconate. Put plainly: Chlorhexidine gluconate (CHG) peritoneal fibrosis in mice, Example 20. It is filed as in vivo, mouse. An excerpt:
The anti-fibrosis activity of LX-5701 was confirmed using the same method as in Example 6-2 of WO2023-085787 A1. The thickness of the peritoneal mesothelial cell layer was quantitatively evaluated in mice with peritoneal fibrosis induced by chlorhexidine gluconate (CHG) under untreated and LX-5701-treated conditions.

Series [2] concerns doxorubicin-induced aged C57BL6J mice. Put plainly: Serum IL6 (ELISA) in doxorubicin-aged mice, Example 22-5, Table 34. The class given is in vivo, mouse. Particulars: untreated aged = 100. The protocol: Eight-week-old male C57BL6J mice (KRIBB Laboratory Animal Resource Center) were acclimated to the experimental environment for one week. Afterwards, the anticancer agent doxorubicin was administered intraperitoneally at a concentration of 10 mg/kg, inducing aging for more than 10 days. The aging-induced mice were randomly assigned to experimental and control groups. LX-403 was mixed with a 10% ethanol solution of PEG400 and administered orally at a concentration of 25 mg/kg or intradermally at a concentration of 1 μM for 21 days. LX-1801 was mixed in distilled water with 4% DMSO, 30% PEG300, and 5% Tween80 and administered intradermally at a concentration of 0.4 μM daily for 21 days. LX-2001 was mixed in PBS and administered intradermally at a concentration of 2 μM daily for 21 days. LX-2002 was mixed in distilled water with 4% DMSO, 30% PEG300, and 5% Tween80 and administered intradermally at a concentration of 2 μM daily for 21 days. […] LX-2005 was mixed in distilled water with 4% DMSO, 30% PEG300, and 5% Tween80 and administered intradermally at a concentration of 90 μM daily for 21 days. […]
The amount of IL6, a senescence-associated secretory factor (SASP), was measured in serum collected from mice using the same method as in Example 7-5 of WO2023-085787 A1 using an enzyme-linked immunosorbent assay (ELISA Kit, R&D Systems).
A general note: ELISA stands for enzyme-linked immunosorbent assay.

Series [3] deals with obesity-induced aged C57BL6J mice. The series can be described thus: Serum IL6 and activin A (ELISA) in obesity-aged mice, Example 23-3, Table 43. The class given is in vivo, mouse. The following applies: 360 mg/kg oral daily for 21 days. The protocol: 15-week-old male C57BL6J mice (The Jackson Laboratory) were induced to obesity by a high-fat diet using the same method as in Example 9-1 WO2023-085787 A1. After acclimation to the experimental environment for one week, the mice were randomly assigned to experimental and control groups. […] LX-3002 was mixed in distilled water with 4% DMSO, 30% PEG300, and 5% Tween80 and administered orally at a concentration of 10 mg/kg daily for 21 days. LX-5701 was mixed in PBS and administered orally at a concentration of 360 mg/kg daily for 21 days. LX-6807 was mixed in saline and administered intraperitoneally at a concentration of 1 mg/kg daily for 21 days. The control group received only the solution in the same volume. After the end of drug administration, the methods described in each example below were performed.
The levels of IL6 and activin A, senescence-associated secretory factors (SASP), were measured in serum collected from mice using the same method as in Example 7-5 of WO2023-085787 A1 using an enzyme-linked immunosorbent assay (ELISA Kit, R&D Systems).

Series [4] has the same test system. Put plainly: Open field test in obese aged mice given senescent cells killed by test compound, Example 16. The class given is in vivo, mouse. Particulars: senescent preadipocytes killed by test compound sc; no administration = 100%.
Series [5] deals with transplanted liver of aged mice. The series can be described thus: Efficiency of liver transplantation from aged mice into young mice. It is filed as in vivo, mouse. The protocol:
In addition, the efficiency of liver transplantation was evaluated. Livers extracted from aged mice of Example 21-1, untreated and treated with LX-403, were transplanted into young 3-month-old mice, and the efficiency of liver transplantation was evaluated 3 days later through analysis of aging and liver damage markers. As a result, when treated with LX-403, the amount of p16, an aging-related marker of the liver after transplantation, and serum AST and ALT, liver damage markers, decreased compared to the control group. […] This improvement in transplantation efficiency was also confirmed when the livers extracted from aged mice were transplanted after removing senescent cells under ex vivo conditions, such as by culturing them in an LX-403-containing medium.

The next series relates to senescent A549 cells. The series can be described thus: Survival of senescent A549 cells treated with supernatant from death-induced cancer cells, Example 14. The class given is cell-based, human. Particulars: for viability at 30 µM: Homo sapiens. The protocol:
In the same way as Examples 12 and 13, senescence of cancer (A549) cells was induced by treatment with doxorubicin or the control group (DMSO), and the cells were cultured. The cells were treated with LX-405 at a concentration of 30 μM. 3 days later, cell viability was measured using CellTiter-Glo Luminescent Cell Viability Assay (Promega) or an optical microscope. In the same manner as in Example 13, the medium supernatants comprising secreted fluid from normally proliferating and senescent cancer cells was obtained. Normally proliferating and senescent-induced cancer cells were treated with the medium supernatants.
Furthermore, other test compounds were used in the same manner in Example 12 above at high concentrations of 30 μM, 90 μM, and 270 μM, respectively, and the cultured medium supernatant comprising secreted fluid from aged cancer cells that were killed were obtained. As a result of measuring the degree of death of aged cancer cells, it was confirmed that aged cancer cells can be effectively removed, as shown in Example 12.

Turning to `O=C1C2CCN(CC2)C1CNC(=O)C(F)(F)F` (stereo not shown) [LX-5701], the “Submesothelial Thickness” value in series [1] was 41.8 (±7.5) μm. The “IL6 (%)” value in series [2] is reported as 57 (±21.5) %. Moreover, the “Activin A” value in series [3] (untreated 100 (±7.5)) is recorded as 61.7 (±14.0) %. Besides, the IL6 in series [3] (untreated 100 (±11.6)) was 53.9 (±15.4) %.
On to `S=C(N/N=C1\CCCc2cccnc21)N1CCN(c2ccccn2)CC1` [LX-801], for which the “Open Field Test Time in Center” value in series [4] is given as 216.8 (±12.8) %.
`O=C(C(C[N+](=O)[O-])=NO)N1CCN(C(c2ccc(Cl)cc2)c2ccc(Cl)cc2)CC1` [LX-403]: the “p16 of transplanted liver, serum AST and ALT” value in series [5] (3 days after transplantation) was “decreased”. The “efficiency of liver transplantation” value in series [5] (mouse, in vivo) was “improves the efficiency of long-term liver transplantation”.
Consider `COC(=O)c1ccc([C@H]2c3[nH]c4ccccc4c3C[C@H](C(=O)OC)N2C(=O)CCl)cc1` [LX-405], for which, in the series on senescent A549 cells (A549, supernatant from No Cells), the Survival is on record as 98.2 (±2.8) %. Further, the viability at 30 µM in the series on senescent A549 cells (A549, A549, supernatant from death-induced proliferating cells) was found to be 78.8%; in the series with senescent A549 cells (A549, A549, supernatant from death-induced senescent cells) it was 72.5%.

One may read the viability as the share of living cells, or the viability signal relative to a control. Low readings indicate more harm to the cells, high ones less harm to the cells.
